Test results taken from patent US20140221361A1, “C-19 MODIFIED TRITERPENOIDS WITH HIV MATURATION INHIBITORY ACTIVITY” (priority 2013, published 2014).

Test system: recombinant NL4-3 virus (Renilla luciferase in nef, Gag P373S)
Experiment: HIV cell culture assay (luciferase reporter, MT-2 cells)
Type: cell-based, HIV-1
Details: luciferase activity, serial dilutions of inhibitor
Description: MT-2 cells and 293T cells were obtained from the NIH AIDS Research and Reference Reagent Program. MT-2 cells were propagated in RPMI 1640 media supplemented with 10% heat inactivated fetal bovine serum, […]. The 293T cells were propagated in DMEM media supplemented with 10% heat inactivated fetal bovine serum (FBS), 100 units/ml penicillin G and 100 µg/ml streptomycin. The proviral DNA clone of NL4-3 was obtained from the NIH AIDS Research and Reference Reagent Program. A recombinant NL4-3 virus, in which a section of the nef gene from NL4-3 was replaced with the Renilla luciferase gene, was used as a reference virus. In addition, residue Gag P373 was converted to P373S. Briefly, the recombinant virus was prepared by transfection of the altered proviral clone of NL4-3. Transfections were performed in 293T cells using LipofectAMINE PLUS from Invitrogen (Carlsbad, Calif.), according to manufacturer's instruction. The virus was titered in MT-2 cells using luciferase enzyme activity as a marker. Luciferase was quantitated using the Dual Luciferase kit from Promega (Madison, Wis.), with modifications to the manufacturer's protocol. The diluted Passive Lysis solution was pre-mixed with the re-suspended Luciferase Assay Reagent and the re-suspended Stop & Glo Substrate (2:1:1 ratio). Fifty (50) μL of the mixture was added to each aspirated well on assay plates and luciferase activity was measured immediately on a Wallac TriLux (Perkin-Elmer). Antiviral activities of inhibitors toward the recombinant virus were quantified by measuring luciferase activity in cells infected for 4-5 days with NLRluc recombinants in the presence serial dilutions of the inhibitor.

[1] = Renilla, NL43, MT-2 cells infected for 4-5 days with NLRluc recombinants
[2] = MT-2 cells infected for 4-5 days with NLRluc recombinants

Row | Structure (SMILES) | EC50 [1] [nM] | EC50 [2] [nM]
1 | CC(CC(=O)O)[C@@H]1CC[C@]2(C(=O)NCCN(C)C)CC[C@]3(C)[C@H](CC[C@@H]4[C@@]5(C)CC[C@H](c6ccc(C(=O)O)cc6)C(C)(C)[C@@H]5CC[C@]43C)[C@@H]12 (single isomer, unassigned) [Example 20] | 30 | –
2 | CC(CC(=O)O)[C@@H]1CC[C@]2(C(=O)NCCN(C)C)CC[C@]3(C)[C@H](CC[C@@H]4[C@@]5(C)CC[C@H](c6ccc(C(=O)O)cc6)C(C)(C)[C@@H]5CC[C@]43C)[C@@H]12 (single isomer, unassigned) [Example 21] | – | 40
3 | CC(CO)[C@@H]1CC[C@]2(NCCN3CCS(=O)(=O)CC3)CC[C@]3(C)[C@H](CC[C@@H]4[C@@]5(C)CC=C(c6ccc(C(=O)O)c(F)c6)C(C)(C)[C@@H]5CC[C@]43C)[C@@H]12 (single isomer, unassigned) [Example A4] | – | 2.34
4 | CC(CO)[C@@H]1CC[C@]2(NCCN3CCS(=O)(=O)CC3)CC[C@]3(C)[C@H](CC[C@@H]4[C@@]5(C)CC=C(c6ccc(C(=O)O)c(F)c6)C(C)(C)[C@@H]5CC[C@]43C)[C@@H]12 (single isomer, unassigned) [Example A5] | – | 6.89
5 | COCC(C)(O)[C@@H]1CC[C@]2(NCCN3CCS(=O)(=O)CC3)CC[C@]3(C)[C@H](CC[C@@H]4[C@@]5(C)CC=C(c6ccc(C(=O)O)cc6)C(C)(C)[C@@H]5CC[C@]43C)[C@@H]12 (single isomer, unassigned) [Example B1] | 1.19 | –
6 | COCC(C)(OC)[C@@H]1CC[C@]2(NCCN3CCS(=O)(=O)CC3)CC[C@]3(C)[C@H](CC[C@@H]4[C@@]5(C)CC=C(c6ccc(C(=O)O)cc6)C(C)(C)[C@@H]5CC[C@]43C)[C@@H]12 (single isomer, unassigned) [Example B2] | 1.05 | –
7 | CC(CO)[C@@H]1CC[C@]2(NCCN3CCS(=O)(=O)CC3)CC[C@]3(C)[C@H](CC[C@@H]4[C@@]5(C)CC=C(c6ccc(C(=O)O)cc6)C(C)(C)[C@@H]5CC[C@]43C)[C@@H]12 (single isomer, unassigned) [Example B5] | – | 1.15
8 | CC(CO)[C@@H]1CC[C@]2(NCCN3CCS(=O)(=O)CC3)CC[C@]3(C)[C@H](CC[C@@H]4[C@@]5(C)CC=C(c6ccc(C(=O)O)cc6)C(C)(C)[C@@H]5CC[C@]43C)[C@@H]12 (single isomer, unassigned) [Example B6] | – | 3.75
9 | CC(CF)[C@@H]1CC[C@]2(NCCN3CCS(=O)(=O)CC3)CC[C@]3(C)[C@H](CC[C@@H]4[C@@]5(C)CC=C(c6ccc(C(=O)O)cc6)C(C)(C)[C@@H]5CC[C@]43C)[C@@H]12 (single isomer, unassigned) [Example B8] | 2.51 | –
10 | CC(O)(CO)[C@@H]1CC[C@]2(NCCN3CCS(=O)(=O)CC3)CC[C@]3(C)[C@H](CC[C@@H]4[C@@]5(C)CC=C(c6ccc(C(=O)O)cc6)C(C)(C)[C@@H]5CC[C@]43C)[C@@H]12 (single isomer, unassigned) [Example B9] | – | 2.15
11 | CC(O)(CO)[C@@H]1CC[C@]2(NCCN3CCS(=O)(=O)CC3)CC[C@]3(C)[C@H](CC[C@@H]4[C@@]5(C)CC=C(c6ccc(C(=O)O)cc6)C(C)(C)[C@@H]5CC[C@]43C)[C@@H]12 (single isomer, unassigned) [Example B10] | – | 6.67
12 | CC(O)[C@@H]1CC[C@]2(NCCN3CCS(=O)(=O)CC3)CC[C@]3(C)[C@H](CC[C@@H]4[C@@]5(C)CC=C(c6ccc(C(=O)O)cc6)C(C)(C)[C@@H]5CC[C@]43C)[C@@H]12 (single isomer, unassigned) [Example B11] | 2.18 | –
13 | CC(O)[C@@H]1CC[C@]2(NCCN3CCS(=O)(=O)CC3)CC[C@]3(C)[C@H](CC[C@@H]4[C@@]5(C)CC=C(c6ccc(C(=O)O)cc6)C(C)(C)[C@@H]5CC[C@]43C)[C@@H]12 (single isomer, unassigned) [Example B12] | – | 3.95
